Values of other authors as cited in paper PMC3979036, “Autocrine IGF-I/insulin receptor axis compensates for inhibition of AKT in ER-positive breast cancer cells with resistance to estrogen deprivation” (Breast Cancer Research : BCR, 2013).

Target: InsR (insulin receptor) (Homo sapiens, UniProt P06213)
Experiment: autophosphorylation of human InsR in transfected CHO-T cells (AstraZeneca unpublished data)
Assay type: cell-based

Chain of InsR (insulin receptor) (P06213 28-758): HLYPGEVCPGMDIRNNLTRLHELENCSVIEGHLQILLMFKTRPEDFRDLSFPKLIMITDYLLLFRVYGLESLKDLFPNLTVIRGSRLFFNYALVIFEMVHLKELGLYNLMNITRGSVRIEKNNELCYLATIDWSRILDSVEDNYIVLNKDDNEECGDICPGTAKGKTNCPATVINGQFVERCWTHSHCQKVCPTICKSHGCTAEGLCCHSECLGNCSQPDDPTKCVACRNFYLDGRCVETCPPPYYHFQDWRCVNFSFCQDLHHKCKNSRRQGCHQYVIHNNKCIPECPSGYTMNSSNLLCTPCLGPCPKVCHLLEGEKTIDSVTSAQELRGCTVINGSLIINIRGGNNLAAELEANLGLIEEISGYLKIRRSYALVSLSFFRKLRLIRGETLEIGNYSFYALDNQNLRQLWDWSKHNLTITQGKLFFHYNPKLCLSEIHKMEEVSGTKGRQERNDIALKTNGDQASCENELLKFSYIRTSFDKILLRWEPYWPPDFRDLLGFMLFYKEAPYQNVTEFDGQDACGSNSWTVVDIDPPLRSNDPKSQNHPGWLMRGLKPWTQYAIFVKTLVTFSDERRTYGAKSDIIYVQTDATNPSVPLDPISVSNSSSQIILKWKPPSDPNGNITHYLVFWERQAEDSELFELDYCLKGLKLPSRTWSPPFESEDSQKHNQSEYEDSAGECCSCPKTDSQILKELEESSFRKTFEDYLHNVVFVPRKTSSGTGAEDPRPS
Chain of InsR (insulin receptor) (P06213 763-1382): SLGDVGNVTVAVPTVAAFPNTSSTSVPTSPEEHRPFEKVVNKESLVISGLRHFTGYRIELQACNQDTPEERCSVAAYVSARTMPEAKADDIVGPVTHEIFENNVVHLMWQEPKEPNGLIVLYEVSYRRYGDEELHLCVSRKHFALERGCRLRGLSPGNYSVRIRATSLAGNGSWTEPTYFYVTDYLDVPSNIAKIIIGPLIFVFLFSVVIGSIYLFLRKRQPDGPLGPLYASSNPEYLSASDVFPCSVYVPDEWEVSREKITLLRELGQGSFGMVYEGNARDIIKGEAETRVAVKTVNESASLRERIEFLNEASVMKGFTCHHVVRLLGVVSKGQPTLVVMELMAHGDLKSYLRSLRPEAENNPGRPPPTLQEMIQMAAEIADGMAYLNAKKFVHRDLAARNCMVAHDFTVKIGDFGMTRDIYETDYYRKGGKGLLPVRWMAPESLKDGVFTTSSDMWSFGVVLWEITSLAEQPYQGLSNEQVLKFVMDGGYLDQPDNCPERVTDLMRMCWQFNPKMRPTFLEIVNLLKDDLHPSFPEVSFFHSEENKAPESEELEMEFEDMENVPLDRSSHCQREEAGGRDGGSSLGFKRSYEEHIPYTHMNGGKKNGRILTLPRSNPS

Question: For `Cc1nn(C2CCN(C(=O)[C@@H](C)O)CC2)c(C)c1Nc1ncc(Cl)c(-c2cnn3ccccc23)n1` [AZD9362], which IC50 is on record?
Answer: 186 nM
